Values quoted from earlier work, collected in patent US20050037089A1, “Method for promoting bone growth” (priority 2003, published 2005).

For `CC[C@H](C)[C@H](NC(=O)[C@H](CCC(=O)O)NC(=O)[C@H](CO)NC(=O)[C@@H](NC(=O)[C@@H](N)CO)C(C)C)C(=O)N[C@@H](CCC(N)=O)C(=O)N[C@@H](CC(C)C)C(=O)N[C@@H](CCSC)C(=O)N[C@@H](Cc1cnc[nH]1)C(=O)N[C@@H](CC(N)=O)C(=O)N[C@@H](CC(C)C)C(=O)NCC(=O)N[C@@H](CCCCN)C(=O)N[C@@H](Cc1cnc[nH]1)C(=O)N[C@@H](CC(C)C)C(=O)N[C@@H](CC(N)=O)C(=O)N[C@@H](CO)C(=O)N[C@@H](CCSC)C(=O)N[C@@H](CCC(=O)O)C(=O)N[C@@H](CCCN=C(N)N)C(=O)N[C@H](C(=O)N[C@@H](CCC(=O)O)C(=O)N[C@@H](Cc1c[nH]c2ccccc12)C(=O)N[C@@H](CC(C)C)C(=O)N[C@@H](CCCN=C(N)N)C(=O)N[C@@H](CCCCN)C(=O)N[C@@H](CCCCN)C(=O)N[C@@H](CC(C)C)C(=O)N[C@@H](CCC(N)=O)C(=O)N[C@@H](CC(=O)O)C(=O)N[C@H](C(=O)N[C@@H](Cc1cnc[nH]1)C(=O)N[C@@H](CC(N)=O)C(=O)N[C@@H](Cc1ccccc1)C(=O)O)C(C)C)C(C)C` [hPTH(1-34)], the bone formation (patients with osteoporosis, subcutaneous administration) is listed as “increase bone formation” and the bone density (postmenopausal women, daily subcutaneous administration of 20 μg or 40 μg) is listed as “increase bone density”.
